According to patent US5138101A, “Recovery of high-boiling aldehydes from rhodium-catalyzed hydroformylation processes” (Eastman Kodak Company, priority 1991, dated 1992):
Where two headings read alike, the source gives them in different places.

Tests used:
[1] = cited from earlier work
[2] = Partitioning (partition coefficient, Kp) of hydroformylation products and hydroformylation solvent between hydroformylation solvent phase and alkanol/water extraction solution phase; type: physicochemical
From the text: The extraction process described herein is the equilibration of a particular compound dissolving into two separate liquid phases. The effectiveness of the present extraction process may be measured in terms of the partition coefficient (Kp) for a compound "X" which is defined as: [formula] […] High Kp values give high extraction efficiencies requiring lower amounts of extraction solution. Similarly, it is desirable that the Kp of the hydroformylation solvent be a low value. This simplifies purification of the aldehyde products down-stream. In the hydroformylation of diolefins to dialdehydes, it also is desirable to have Kp values for the dialdehyde products larger than the Kp values of the intermediate mono-aldehyde mono-olefin (formyl-olefin) intermediate formed in the hydroformylation reaction. This permits recycling of the formyl-olefin to the hydroformylation reactor in the hydroformylation solvent for further reaction to the desired dialdehyde product, while selectively extracting the desired di-aldehyde product. Likewise, for the same reason, it is desirable to have low Kp values for the olefin or polyolefin feedstocks used in the process.
The extraction examples were carried out in a 300 mL, 3-neck, glass flask equipped with a Teflon magnetic stir bar, a thermometer to measure the temperature of the liquid, a septum for the use of a syringe, a heating mantle and a nitrogen bubbler blanket for the system. […] […] The mixture was stirred at 25° C. for 30 minutes to reach equilibrium, stirring was stopped, and the mixture was allowed to separate into 2 layers (phases) over a 30 minute period of time. […] Samples of each phase were taken with a syringe and chromatographed on a Hewlett Packard Model 5730 capillary FID gas chromatograph. The instrument used a 30 meter DB-1 column (Supelco.) with a programming rate of a 4 minute hold at 70° C. with a programming rate of 8° C./minute to 250° C. The calculations for the weights of hydroformylation products in each phase were carried out using standard procedures using the dodecane as an internal standard for the catalyst layer and methanol as the internal standard for the aqueous layer. The initial volumes of the two phases were used for estimation of the volumes of the two phases at equilibrium to obtain the concentrations of the products in each phase.
The partition coefficients (Kp) were calculated for the C9-enal and C10-dial products for equilibrium between the dodecane hydroformylation solvent and the extraction solution phases at 25° C.
The two phases in the flask were heated to and maintained at 53° C. with stirring for 30 minutes to reach equilibrium. The mixture was allowed to separate into 2 layers at 53° C. and each layer was sampled and analyzed as described above. […] The partitioning procedure was repeated at 70° C.

For [Rh] [Rh, rhodium], the “Rhodium extracted into the aqueous phase” value ([1]; 4-hydroxybutyraldehyde 38 percent by weight, U.S. Pat. No. 4,678,857) is given as 5 mg of rhodium per liter and the “Rhodium extracted into the aqueous phase” value ([1]; aqueous 2-N,N-dimethylaminoethanol, U.S. Pat. No. 4,292,196) is given as 70%.

With CC(C)c1ccc(C(C)C)cc1 [p-diisopropylbenzene] the “Partition Coefficient” value ([2]; Example 3, Ref. Ex. 19, MeOH:water 3:1, 29° C.) was 0.075, the “Partition Coefficient” value ([2]; Example 4, Ref. Ex. 19, MeOH:water 3:1, 58° C.) was 0.118 and the “Partition Coefficient” value ([2]; Example 5, Ref. Ex. 19, MeOH:water 1.5:1, 58° C.) was 0.050. For the same compound, the “Partition Coefficient” value ([2]; Example 6, Ref. Ex. 19, MeOH:water 1.5:1, 31° C.) was 0.018, the “Partition Coefficient” value ([2]; Example 18, Ref. Ex. 24, EtOH:water 7:4, 52° C.) was 0.033 and the “Partition Coefficient” value ([2]; Example 19, Ref. Ex. 24, EtOH:water 7:4, 32° C.) was 0.009. The “Partition Coefficient” value ([2]; Example 24, Ref. Ex. 19, MeOH:water 3:1, 29° C.) was 0.075, the “Partition Coefficient” value ([2]; Example 25, Ref. Ex. 19, MeOH:water 3:1, 58° C.) was 0.118 and the “Partition Coefficient” value ([2]; Example 26, Ref. Ex. 19, MeOH:water 1.5:1, 58° C.) was 0.050. For the same compound, the “Partition Coefficient” value ([2]; Example 27, Ref. Ex. 19, MeOH:water 1.5:1, 31° C.) was 0.018, the “Partition Coefficient” value ([2]; Example 28, Ref. Ex. 24, EtOH:water 3:1, 48° C.) was 0.298 and the “Partition Coefficient” value ([2]; Example 29, Ref. Ex. 24, EtOH:water 3:1, 33° C.) was 0.229. The “Partition Coefficient” value ([2]; Example 30, Ref. Ex. 24, EtOH:water 7:4, 52° C.) was 0.033, the “Partition Coefficient” value ([2]; Example 31, methanol/water 37/12 mL, 50° C., Na 0) was 0.096 and the “Partition Coefficient” value ([2]; Example 32, 50° C., Na 82 mg/L as 2-ethylhexanoate) was 0.125. For the same compound, the “Partition Coefficient” value ([2]; Example 33, 50° C., Na 164 mg/L as 2-ethylhexanoate) was 0.115, the “Partition Coefficient” value ([2]; Example 34, 50° C., Na 327 mg/L as 2-ethylhexanoate) was 0.131 and the “Partition Coefficient” value ([2]; Example 35, 50° C., Na 653 mg/L as 2-ethylhexanoate) was 0.137. The “Partition Coefficient” value ([2]; Example 36, 50° C., Na 1307 mg/L as 2-ethylhexanoate) was 0.063, the “Partition Coefficient” value ([2]; Example 37, methanol/water 37/12 mL, 50° C., Na 0) was 0.064 and the “Partition Coefficient” value ([2]; Example 38, 50° C., Na 82 mg/L as oleate) was 0.083. The “Partition Coefficient” value ([2]; Example 39, 50° C., Na 164 mg/L as oleate) was 0.062, the “Partition Coefficient” value ([2]; Example 40, 50° C., Na 327 mg/L as oleate) was 0.083 and the “Partition Coefficient” value ([2]; Example 41, 50° C., Na 653 mg/L as oleate) was 0.052. For the same compound, the “Partition Coefficient” value ([2]; Example 42, 50° C., Na 1307 mg/L as oleate) was 0.063, the “Partition Coefficient” value ([2]; Example 43, methanol/water 37/12 mL, 50° C., Na 0) was 0.074 and the “Partition Coefficient” value ([2]; Example 44, 50° C., Na 82 mg/L as n butyrate) was 0.063. The “Partition Coefficient” value ([2]; Example 45, 50° C., Na 164 mg/L as n butyrate) was 0.073, the “Partition Coefficient” value ([2]; Example 46, 50° C., Na 327 mg/L as n butyrate) was 0.053 and the “Partition Coefficient” value ([2]; Example 47, 50° C., Na 653 mg/L as n butyrate) was 0.051. For the same compound, the “Partition Coefficient” value ([2]; Example 48, 50° C., Na 1307 mg/L as n butyrate) was 0.038, the “Partition Coefficient” value ([2]; Example 49, methanol/water 37/27 mL, Na 0) was 0.0164 and the “Partition Coefficient” value ([2]; Example 50, methanol/water 37/27 mL, Na 100 as oleate) was 0.0210. The “Partition Coefficient” value ([2]; Example 51, methanol/water 37/27 mL, Na 200 as oleate) was 0.0210, the “Partition Coefficients” value ([2]; Example 52, Ref. Ex. 1, MeOH:water 3:1, 50° C., Na 0) was 0.115 and the “Partition Coefficients” value ([2]; Example 54, Ref. Ex. 1, Na 164 mg/L) was 0.073. The “Partition Coefficients” value ([2]; Example 56, Ref. Ex. 11, Na 0) was 0.081, the “Partition Coefficients” value ([2]; Example 58, Ref. Ex. 11, Na 164 mg/L) was 0.073 and the “Partition Coefficients” value ([2]; Example 60, Ref. Ex. 12, Na 0) was 0.071. For the same compound, the “Partition Coefficients” value ([2]; Example 62, Ref. Ex. 12, Na 164 mg/L) was 0.067, the “Partition Coefficients” value ([2]; Example 64, Ref. Ex. 7, Na 0) was 0.056 and the “Partition Coefficients” value ([2]; Example 66, Ref. Ex. 7, Na 164 mg/L) was 0.072. The “Partition Coefficients” value ([2]; Example 68, Ref. Ex. 13, Na 0) was 0.076, the “Partition Coefficients” value ([2]; Example 70, Ref. Ex. 13, Na 164 mg/L) was 0.060 and the “Partition Coefficient” value ([2]; Example 79, VCH product, Ref. Ex. 3, 40 mL methanol, 10 mL water, 50° C.) was 0.0859. For the same compound, the “Partition Coefficient” value ([2]; Example 80, as Example 79 plus 10 mL water) was 0.0233, the “Partition Coefficient” value ([2]; Example 81, as Example 80 plus 10 mL water) was 0.0050 and the “Partition Coefficient” value ([2]; Example 82, as Example 81 plus 10 mL water) was 0.0017. The “Partition Coefficient” value ([2]; Example 83, DCPD product, Ref. Ex. 4, procedure of Examples 79-82) was 0.0724, the “Partition Coefficient” value ([2]; Example 84, DCPD product, Ref. Ex. 4, procedure of Examples 79-82) was 0.0469 and the “Partition Coefficient” value ([2]; Example 85, DCPD product, Ref. Ex. 4, procedure of Examples 79-82) was 0.0269. The “Partition Coefficient” value ([2]; Example 86, CDDT product, Ref. Ex. 2, 37 mL methanol, 12 mL water, 25° C.) was 0.0297, the “Partition Coefficient” value ([2]; Example 87, as Example 86 plus 10 mL methanol) was 0.077 and the “Partition Coefficient” value ([2]; Example C-7, Ref. Ex. 19, DEG:water 3:1, 30° C.) was 0.128. The “Partition Coefficient” value ([2]; Example C-8, Ref. Ex. 19, DEG:water 1.5:1, 25° C.) was 0.030, the “Partition Coefficient” value ([2]; Example C-9, Ref. Ex. 10, PrOH:water 3:1, 50° C.) was 0.055 and the “Partition Coefficient” value ([2]; Example C-10, Ref. Ex. 10, PrOH:water 1.5:1, 50° C.) was 0.018. The “Partition Coefficient” value ([2]; Example C-11, Ref. Ex. 10, PrOH:water 1:1, 50° C.) was 0.013, the “Partition Coefficient” value ([2]; Example C-16, Ref. Ex. 19, DEG, no water, 58° C.) was 0.128 and the “Partition Coefficient” value ([2]; Example C-17, Ref. Ex. 19, DEG, no water, 33° C.) was 0.128. For the same compound, the “Partition Coefficient” value ([2]; Example C-18, Ref. Ex. 19, DEG:water 3:1, 30° C.) was 0.030, the “Partition Coefficient” value ([2]; Example C-19, Ref. Ex. 19, DEG:water 3:1, 60° C.) was 0.014 and the “Partition Coefficient” value ([2]; Example C-20, Ref. Ex. 19, DEG:water 1.5:1, 60° C.) was 0.0061. For the same compound, the “Partition Coefficient” value ([2]; Example C-21, Ref. Ex. 19, DEG:water 1.5:1, 25° C.) was 0.0030, the “Partition Coefficient” value ([2]; Example C-22, Ref. Ex. 10, PrOH:water 3:1, 50° C.) was 0.055 and the “Partition Coefficient” value ([2]; Example C-23, Ref. Ex. 10, PrOH:water 1.5:1, 50° C.) was 0.0182. The “Partition Coefficient” value ([2]; Example C-24, Ref. Ex. 10, PrOH:water 1:1, 50° C.) was 0.0132.
